Drawing on patent publication US20250100996A1, “HETEROCYCLOALKYL AND HETEROARYL COMPOUNDS AND PHARMACEUTICAL COMPOSITIONS THAT MODULATE IKZF2” (Plexium, Inc., priority 2021, published 2025), this text covers DC50, inhibition and EC50 for 15 molecules.

Molecules are shown by their SMILES.

In one assay the target is T1, IKZF1 (Ikaros) (Homo sapiens, UniProt Q13422).
T1 construct: mScarlet (behind P2A) (C, cleaved yes); expressed in transfected cells
The assay can be described thus: IKZF1 reporter degradation assay (HEK 293T IKZF1-mNeonGreen reporter cell line). In kind it is cell-based. To be noted: 24 hours incubation. The source says:
Polycistronic plasmids were constructed for the mammalian expression of fluorescent reporter fusions of human transcription factors IKZF1 (Ikaros), IKZF2 (Helios), and IKZF3 (Aiolos). The respective protein sequences had their C-terminal end joined to a GGGGS linker repeated three times followed by mNeonGreen, P2A sequence, and mScarlet. The DNA sequences of the open reading frames are as follows:
IKZF1, IKZF2, and IKZF3 constructs were cloned into the UCOE Hygromycin expression vectors (Millipore Sigma). Reporter constructs were transfected using cationic lipid reagents into adherent HEK 293T cells and stable integrants were selected by treatment with 200 μg/mL hygromycin B. Clonal populations were obtained from the population of stable integrants either by limiting dilution or fluorescence activated cell sorting.
The clonal stable cell lines were maintained under constant 200 μg/mL hygromycin B selection while being passaged for use in the degradation assays. […] The fluorescence intensity of the IKZF1/2/3-mNeonGreen (FITC channel) and mScarlet (PE channel) reporters were routinely analyzed by flow cytometry to confirm consistent expression levels between experiments.
The IKZF1/IKZF2/IKZF3 degradation assays were carried out by harvesting the HEK 293T reporter cell lines and resuspending the cells in media formulated for reduced background fluorescence (FluoroBrite; Thermo Fisher). The respective cell lines were seeded at a density of 4000 cells/well into black-walled 384-well optical grade assay tissue culture plates. The cells were incubated overnight at 37° C. to allow for attachment to the assay plate. Dilutions of the compounds were prepared in DMSO from 10 mM compound stocks. The assay plates were treated with appropriate concentrations of the compounds by dispensing the DMSO dilutions in quadruplicate wells with an upper limit of 0.5% final DMSO.
After 24 hours incubation with the compounds, the assay plates were imaged on an ImageXpress Pico microscopy system (cells maintained at 37° C. during imaging) to obtain the fluorescent readouts. The assay plates were imaged in the FITC and Tetramethylrhodamine (TRITC) channels to obtain the mNeonGreen fluorescence intensity (reporter degradation data) and mScarlet fluorescence intensity (for cell segmentation). 293T-IKZF1 and 293T-IKZF3 reporter cell lines were imaged with exposures of 500 milliseconds (ms) for both FITC and TRITC channels, while the 293T-IKZF2 reporter cell line was imaged with exposures of 1000 ms for FITC and 1250 ms for TRITC. The resulting data was analyzed with Cell Reporter Xpress software using the 2-channel cell scoring analysis with a “percent positive” readout. The TRITC channel was selected for the “nuclei” segmentation with a threshold of 20 while the FITC channel was selected for the “Marker 1” segmentation and a threshold of 100 for the IKZF1 and IKZF3 reporter lines. […] The minimum segmentation width was set to 6 micrometers and the maximum segmentation width was set to 15 micrometers for all cell lines. The DC50 calculations were determined by regression to best fit four-parameter logistic curves using GraphPad Prism.

Assay [1] deals with T2, IKZF2 (Helios) (Homo sapiens, UniProt Q96SW2+Q9UKS7).
T2 construct: Leu-Asp junction (codons ctcgac before the linker); mScarlet (behind P2A) (C, cleaved yes); expressed in transfected cells
T2 sequence (Q9UKS7 whole entry): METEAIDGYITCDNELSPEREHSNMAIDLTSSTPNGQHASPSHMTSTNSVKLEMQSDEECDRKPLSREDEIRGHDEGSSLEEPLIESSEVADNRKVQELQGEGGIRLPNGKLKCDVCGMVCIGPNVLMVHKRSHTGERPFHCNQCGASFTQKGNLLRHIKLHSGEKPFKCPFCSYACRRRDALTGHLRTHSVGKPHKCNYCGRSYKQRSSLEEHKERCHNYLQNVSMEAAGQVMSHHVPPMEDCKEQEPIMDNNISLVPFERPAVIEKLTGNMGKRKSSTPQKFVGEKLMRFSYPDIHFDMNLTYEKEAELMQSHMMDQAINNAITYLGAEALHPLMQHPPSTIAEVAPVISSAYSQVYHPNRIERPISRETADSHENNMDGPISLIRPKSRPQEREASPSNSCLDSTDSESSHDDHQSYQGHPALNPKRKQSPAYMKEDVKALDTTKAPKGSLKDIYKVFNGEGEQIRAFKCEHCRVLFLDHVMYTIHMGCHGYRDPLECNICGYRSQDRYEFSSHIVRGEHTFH
T2 sequence (Q96SW2 whole entry): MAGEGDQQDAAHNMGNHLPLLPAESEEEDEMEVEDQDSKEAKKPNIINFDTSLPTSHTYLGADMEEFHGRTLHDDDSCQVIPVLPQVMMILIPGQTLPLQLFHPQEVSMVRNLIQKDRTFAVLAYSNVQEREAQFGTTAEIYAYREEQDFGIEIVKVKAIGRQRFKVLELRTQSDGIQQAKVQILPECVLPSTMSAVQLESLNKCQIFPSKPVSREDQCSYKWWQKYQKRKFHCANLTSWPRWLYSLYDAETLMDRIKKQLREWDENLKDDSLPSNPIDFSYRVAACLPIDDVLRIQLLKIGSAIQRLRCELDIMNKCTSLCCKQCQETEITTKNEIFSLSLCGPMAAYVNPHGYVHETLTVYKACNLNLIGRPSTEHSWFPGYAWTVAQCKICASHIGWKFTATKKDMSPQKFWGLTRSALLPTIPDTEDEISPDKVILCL
T2 sequence (Q16531 whole entry partner): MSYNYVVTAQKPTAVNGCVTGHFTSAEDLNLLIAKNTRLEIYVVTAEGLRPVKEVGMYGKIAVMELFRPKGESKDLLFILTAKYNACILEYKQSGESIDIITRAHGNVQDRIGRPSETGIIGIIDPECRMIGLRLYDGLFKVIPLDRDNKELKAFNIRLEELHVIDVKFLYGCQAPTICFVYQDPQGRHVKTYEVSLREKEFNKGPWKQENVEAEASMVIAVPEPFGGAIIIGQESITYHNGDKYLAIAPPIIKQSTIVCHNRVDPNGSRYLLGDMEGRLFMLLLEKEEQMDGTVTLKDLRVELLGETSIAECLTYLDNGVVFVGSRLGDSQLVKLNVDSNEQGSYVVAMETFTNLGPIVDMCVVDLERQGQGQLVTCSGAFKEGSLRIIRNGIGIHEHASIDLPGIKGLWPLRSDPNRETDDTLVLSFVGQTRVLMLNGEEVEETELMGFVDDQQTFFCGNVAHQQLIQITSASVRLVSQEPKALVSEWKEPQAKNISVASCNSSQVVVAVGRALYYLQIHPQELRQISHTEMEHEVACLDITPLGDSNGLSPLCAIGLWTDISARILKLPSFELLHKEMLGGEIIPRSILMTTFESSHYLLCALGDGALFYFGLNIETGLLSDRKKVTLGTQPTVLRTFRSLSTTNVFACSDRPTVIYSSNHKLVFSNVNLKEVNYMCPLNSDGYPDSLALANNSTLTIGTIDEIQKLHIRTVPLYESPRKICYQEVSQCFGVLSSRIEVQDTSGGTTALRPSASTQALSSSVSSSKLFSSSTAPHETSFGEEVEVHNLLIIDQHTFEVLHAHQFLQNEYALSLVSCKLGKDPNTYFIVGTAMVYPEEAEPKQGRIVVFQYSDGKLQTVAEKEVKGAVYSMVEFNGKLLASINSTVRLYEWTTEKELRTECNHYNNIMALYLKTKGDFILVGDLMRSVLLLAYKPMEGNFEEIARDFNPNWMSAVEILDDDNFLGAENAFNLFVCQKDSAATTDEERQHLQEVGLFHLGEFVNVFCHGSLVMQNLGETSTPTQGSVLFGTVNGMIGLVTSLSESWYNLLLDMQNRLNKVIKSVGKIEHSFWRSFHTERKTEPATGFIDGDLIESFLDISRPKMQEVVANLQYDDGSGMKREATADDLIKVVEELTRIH
The assay can be described thus: IKZF2 reporter degradation assay (HEK 293T IKZF2-mNeonGreen reporter cell line). In kind it is cell-based. To be noted: HEK-293T, 24 h, 1 μM compound, HEK 293T IKZF2 reporter cells, 24 hours incubation. The procedure, abridged:
(§1)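 Degradation is measured as loss of mNeonGreen fused C-terminally to each human IKZF protein in clonal HEK 293T cells, with co-expressed mScarlet as reference. Treatment lasts 24 h at 37 °C. DC50 is derived by logistic fitting of percent positive cells.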

In assay [2] the target is T3, IKZF2 (Helios) (Homo sapiens, UniProt Q9UKS7).
T3 construct: Leu-Asp junction (codons ctcgac before the linker); mScarlet (behind P2A) (C, cleaved yes); expressed in transfected cells
T3 sequence (Q9UKS7 whole entry): as the sequence (Q9UKS7 whole entry) above
T3 sequence (Q96SW2 whole entry, further chain): as the sequence (Q96SW2 whole entry) above
T3 sequence (Q16531 whole entry partner): as the sequence (Q16531 whole entry partner) above
The assay is described as above. In kind it is cell-based. The following applies: 24 hours incubation. The method, boiled down: as §1

A further assay addresses T4, IKZF3 (Aiolos) (Homo sapiens, UniProt Q9UKT9).
T4 construct: Leu-Asp junction (codons ctcgac before the linker); mScarlet (behind P2A) (C, cleaved yes); expressed in transfected cells
The assay can be described thus: IKZF3 reporter degradation assay (HEK 293T IKZF3-mNeonGreen reporter cell line). In kind it is cell-based. The following applies: 24 hours incubation. The procedure, abridged:
as §1

For assay [3], the target named is T5, human E3 ligase component cereblon (CRBN) (Homo sapiens, UniProt Q96SW2).
T5 construct: host or cells: HEK293T
T5 sequence (Q96SW2 whole entry): as the sequence (Q96SW2 whole entry) above
T5 sequence (Q16531 whole entry partner): as the sequence (Q16531 whole entry partner) above
The assay can be described thus: Cereblon (CRBN) target engagement, NanoBRET TE Intracellular E3 Ligase Assay in transfected HEK-293T cells. To be noted: read-out: CRBN Binding EC50. The method, boiled down: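 HEK-293T cells transiently co-transfected with NanoLuc-CRBN (N-terminal NanoLuc) and DDB1 were dosed with CRBN tracer and an 11-point compound series (typically 10 μM to 100 pM) for 2 h at 37° C. BRET at 450/610 nm gave IC50 by four-parameter logistic fit.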

Setting [4] is: HEK 293T IKZF1-mNeonGreen reporter.
Setting [5] is: HEK 293T IKZF2-mNeonGreen reporter.
Where [6] appears, read: HEK 293T IKZF3-mNeonGreen reporter.

T4 sequence (Q96SW2 whole entry partner): as the sequence (Q96SW2 whole entry) above
T4 sequence (Q16531 whole entry partner): as the sequence (Q16531 whole entry partner) above
T4 sequence (Q9UKT9 whole entry): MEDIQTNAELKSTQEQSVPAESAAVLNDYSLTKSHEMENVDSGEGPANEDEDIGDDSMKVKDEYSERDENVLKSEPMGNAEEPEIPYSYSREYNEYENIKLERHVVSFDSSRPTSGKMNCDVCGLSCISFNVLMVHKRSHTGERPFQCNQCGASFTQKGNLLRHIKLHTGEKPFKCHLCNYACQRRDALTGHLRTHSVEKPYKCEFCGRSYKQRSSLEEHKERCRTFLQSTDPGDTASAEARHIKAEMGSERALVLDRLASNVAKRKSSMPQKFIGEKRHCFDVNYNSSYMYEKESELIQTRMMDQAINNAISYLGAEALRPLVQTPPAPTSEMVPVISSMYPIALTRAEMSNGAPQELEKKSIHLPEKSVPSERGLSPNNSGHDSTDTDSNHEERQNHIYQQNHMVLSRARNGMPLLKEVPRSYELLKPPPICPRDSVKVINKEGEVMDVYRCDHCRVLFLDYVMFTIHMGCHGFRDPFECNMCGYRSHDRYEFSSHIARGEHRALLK
T1 sequence (Q96SW2 whole entry partner): as the sequence (Q96SW2 whole entry) above
T1 sequence (Q16531 whole entry partner): as the sequence (Q16531 whole entry partner) above
T1 sequence (Q13422 whole entry): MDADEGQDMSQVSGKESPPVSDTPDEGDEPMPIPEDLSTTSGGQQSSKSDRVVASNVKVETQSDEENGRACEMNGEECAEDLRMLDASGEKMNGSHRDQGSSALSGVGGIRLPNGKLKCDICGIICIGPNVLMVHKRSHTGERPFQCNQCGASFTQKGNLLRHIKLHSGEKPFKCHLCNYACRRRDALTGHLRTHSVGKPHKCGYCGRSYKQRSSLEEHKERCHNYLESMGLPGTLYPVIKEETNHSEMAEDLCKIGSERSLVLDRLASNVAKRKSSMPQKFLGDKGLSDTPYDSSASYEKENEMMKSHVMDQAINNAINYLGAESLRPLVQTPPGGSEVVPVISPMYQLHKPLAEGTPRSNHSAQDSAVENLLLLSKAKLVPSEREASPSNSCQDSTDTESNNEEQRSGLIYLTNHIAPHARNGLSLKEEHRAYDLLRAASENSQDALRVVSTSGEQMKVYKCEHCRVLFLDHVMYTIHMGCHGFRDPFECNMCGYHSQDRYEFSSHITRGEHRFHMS

Turning to `O=C1CCC(N2Cc3cc(OC4CCCCC4N4CC(c5cccc6[nH]ncc56)C4)ccc3C2=O)C(=O)N1` (stereo not drawn) [Compound 71-B, 3-(5-((2-(3-(1H-indazol-4-yl)azetidin-1-yl)cyclohexyl)oxy)-1-oxoisoindolin-2-yl)piperidine-2,6-dione], the figures for the DC50 at IKZF1 (Ikaros) (HEK 293T IKZF1 reporter cells), on IKZF2 (Helios) [2] (HEK 293T IKZF2 reporter cells) and at IKZF3 (Aiolos) (HEK 293T IKZF3 reporter cells) were more than 30 µM, 0.0283 µM and more than 30 µM, respectively. At IKZF2 (Helios) [1], this molecule had an inhibition at 1 µM of 79.3%.

With `O=C1CCC(N2Cc3cc(OC4CCC[C@@H]4N4CC(c5cncnc5)C4)ccc3C2=O)C(=O)N1` (mixture of isomers) [Compound 197-B, Rac-3-(1-oxo-5-(((trans)-2-(3-(pyrimidin-5-yl)azetidin-1-yl)cyclopentyl)oxy)isoindolin-2-yl)piperidine-2,6-dione], in assay [3], the EC50 was 0.138 µM. Also, the DC50 at IKZF1 (Ikaros) (setting [4]), on IKZF2 (Helios) [2] (setting [5]) and on IKZF3 (Aiolos) (setting [6]) was more than 30 µM throughout.

On to `O=C1CCC(N2Cc3cc(O[C@H]4CCCC4N4CC(c5ccnc6ccccc56)C4)ccc3C2=O)C(=O)N1` (mixture of isomers) [Compound 195-B, Rac-3-(1-oxo-5-(((trans)-2-(3-(quinolin-4-yl)azetidin-1-yl)cyclopentyl)oxy)isoindolin-2-yl)piperidine-2,6-dione], for which, in assay [3], the EC50 was determined as 0.024 µM. For the same molecule, the DC50 on IKZF1 (Ikaros) (setting [4]), at IKZF2 (Helios) [2] (setting [5]) and at IKZF3 (Aiolos) (setting [6]) was more than 30 µM each time.

For `O=C1CCC(N2Cc3cc(OC4CCC[C@@H]4N4CC(c5ccccn5)C4)ccc3C2=O)C(=O)N1` (mixture of isomers) [Compound 210-B, Rac-3-(1-oxo-5-(((trans)-2-(3-(pyridin-2-yl)azetidin-1-yl)cyclopentyl)oxy)isoindolin-2-yl)piperidine-2,6-dione], in assay [3], the EC50 turned out to be 0.122 µM. Further, the DC50 on IKZF1 (Ikaros) (setting [4]), at IKZF2 (Helios) [2] (setting [5]) and at IKZF3 (Aiolos) (setting [6]) was more than 30 µM each time.

Turning to `O=C1CCC(N2Cc3cc(O[C@H]4CCCC[C@@H]4N4CC(c5ccc(C(F)(F)F)nc5)C4)ccc3C2=O)C(=O)N1` (mixture of isomers) [Compound 191-B, Rac-3-(1-oxo-5-(((trans)-2-(3-(6-(trifluoromethyl)pyridin-3-yl)azetidin-1-yl)cyclohexyl)oxy)isoindolin-2-yl)piperidine-2,6-dione], the EC50 in assay [3] came out at 0.031 µM. Also, the DC50 on IKZF1 (Ikaros) (setting [4]), on IKZF2 (Helios) [2] (setting [5]) and at IKZF3 (Aiolos) (setting [6]) was more than 30 µM throughout.

In the case of `O=C1CCC(N2Cc3cc(OC4CCCC4N4CC(c5ncc(Cl)cn5)C4)ccc3C2=O)C(=O)N1` (stereo not drawn) [Compound 200-B, 3-(5-((2-(3-(5-chloropyrimidin-2-yl)azetidin-1-yl)cyclopentyl)oxy)-1-oxoisoindolin-2-yl)piperidine-2,6-dione], in assay [3], the EC50 was determined as 0.02 µM. Further, the DC50 at IKZF1 (Ikaros) (setting [4]), at IKZF2 (Helios) [2] (setting [5]) and at IKZF3 (Aiolos) (setting [6]) was more than 30 µM throughout.

As to `O=C1NC(=O)C2(N3Cc4cc(O[C@@H]5CCCC[C@@H]5N5CC(c6ncc(Cl)cn6)C5)ccc4C3=O)CC1C2` (racemic) [Compound 171-B, Rac-1-(5-(((cis)-2-(3-(5-chloropyrimidin-2-yl)azetidin-1-yl)cyclohexyl)oxy)-1-oxoisoindolin-2-yl)-3-azabicyclo[3.1.1]heptane-2,4-dione], the EC50 in assay [3] is more than 10 µM. For the same molecule, the DC50 at IKZF1 (Ikaros) (setting [4]) is not below 30 µM; at IKZF2 (Helios) [2] (setting [5]) it was more than 30 µM; on IKZF3 (Aiolos) (setting [6]) it was more than 30 µM.

Take `O=C1CCC(N2Cc3cc(OC4CCC[C@@H]4N4CC(c5ccncc5)C4)ccc3C2=O)C(=O)N1` (mixture of isomers) [Compound 206-B, Rac-3-(1-oxo-5-(((trans)-2-(3-(pyridin-4-yl)azetidin-1-yl)cyclopentyl)oxy)isoindolin-2-yl)piperidine-2,6-dione]: the EC50 in assay [3] is 0.071 µM. Also, the DC50 on IKZF1 (Ikaros) (setting [4]), at IKZF2 (Helios) [2] (setting [5]) and at IKZF3 (Aiolos) (setting [6]) was more than 30 µM throughout.

As to `O=C1CCC(N2Cc3cc(O[C@H]4CCCC[C@@H]4N4CC(c5cc(Cl)ccn5)C4)ccc3C2=O)C(=O)N1` (mixture of isomers) [Compound 166-B, Rac-3-(5-(((trans)-2-(3-(4-chloropyridin-2-yl)azetidin-1-yl)cyclohexyl)oxy)-1-oxoisoindolin-2-yl)piperidine-2,6-dione], in assay [3], the EC50 worked out at 0.031 µM. Besides, the DC50 on IKZF1 (Ikaros) (setting [4]), at IKZF2 (Helios) [2] (setting [5]) and at IKZF3 (Aiolos) (setting [6]) was more than 30 µM throughout.

Turning to `O=C1CCC(N2Cc3cc(O[C@H]4CCCC[C@@H]4N4CC(n5ccnc5)C4)ccc3C2=O)C(=O)N1` (stereo partly drawn) [Compound 176-B, 3-(5-(((1S,2S)-2-(3-(1H-imidazol-1-yl)azetidin-1-yl)cyclohexyl)oxy)-1-oxoisoindolin-2-yl)piperidine-2,6-dione], the EC50 in assay [3] worked out at 0.899 µM. Moreover, the DC50 was more than 30 µM at IKZF1 (Ikaros) (setting [4]), 2.1 µM on IKZF2 (Helios) [2] (setting [5]) and more than 30 µM on IKZF3 (Aiolos) (setting [6]).

Turning to `O=C1NC(=O)C2(N3Cc4cc(O[C@H]5CCCC[C@@H]5N5CC(c6ncc(Cl)cn6)C5)ccc4C3=O)CC1C2` (racemic) [Compound 172-B, Rac-1-(5-(((trans)-2-(3-(5-chloropyrimidin-2-yl)azetidin-1-yl)cyclohexyl)oxy)-1-oxoisoindolin-2-yl)-3-azabicyclo[3.1.1]heptane-2,4-dione], the EC50 in assay [3] is more than 10 µM. For the same molecule, the DC50 at IKZF1 (Ikaros) (setting [4]), at IKZF2 (Helios) [2] (setting [5]) and at IKZF3 (Aiolos) (setting [6]) was more than 30 µM throughout.

For the molecule `O=C1CCC(N2Cc3cc(OC4CCC[C@@H]4N4CC(c5cccnc5)C4)ccc3C2=O)C(=O)N1` (mixture of isomers) [Compound 208-B, Rac-3-(1-oxo-5-(((trans)-2-(3-(pyridin-3-yl)azetidin-1-yl)cyclopentyl)oxy)isoindolin-2-yl)piperidine-2,6-dione], the EC50 in assay [3] came out at 0.076 µM. For the same molecule, the DC50 on IKZF1 (Ikaros) (setting [4]), at IKZF2 (Helios) [2] (setting [5]) and at IKZF3 (Aiolos) (setting [6]) was more than 30 µM throughout.

Regarding `Cc1cnc(C2CN([C@H]3CCCC[C@@H]3Oc3ccc4c(c3)CN(C3CCC(=O)NC3=O)C4=O)C2)o1` (mixture of isomers) [Compound 175-B, Rac-3-(5-(((trans)-2-(3-(5-methyloxazol-2-yl)azetidin-1-yl)cyclohexyl)oxy)-1-oxoisoindolin-2-yl)piperidine-2,6-dione], the half-maximal effective concentration (EC50) in assay [3] amounted to 0.022 µM. The DC50 on IKZF1 (Ikaros) (setting [4]), on IKZF2 (Helios) [2] (setting [5]) and at IKZF3 (Aiolos) (setting [6]) was more than 30 µM each time.

`O=C1CCC(N2Cc3cc(O[C@H]4CCCC[C@@H]4N4CC(c5cncc(Cl)c5)C4)ccc3C2=O)C(=O)N1` (mixture of isomers) [Compound 168-B, Rac-3-(5-(((trans)-2-(3-(5-chloropyridin-3-yl)azetidin-1-yl)cyclohexyl)oxy)-1-oxoisoindolin-2-yl)piperidine-2,6-dione]: the EC50 in assay [3] stood at 0.048 µM. The DC50 at IKZF1 (Ikaros) (setting [4]), at IKZF2 (Helios) [2] (setting [5]) and on IKZF3 (Aiolos) (setting [6]) was more than 30 µM each time.

On to `COc1ccc(C2CN([C@H]3CCCC3Oc3ccc4c(c3)CN(C3CCC(=O)NC3=O)C4=O)C2)cn1` (mixture of isomers) [Compound 202-B, Rac-3-(5-(((trans)-2-(3-(6-methoxypyridin-3-yl)azetidin-1-yl)cyclopentyl)oxy)-1-oxoisoindolin-2-yl)piperidine-2,6-dione], for which, in assay [3], the EC50 was 0.029 µM. Further, the DC50 at IKZF1 (Ikaros) (setting [4]), at IKZF2 (Helios) [2] (setting [5]) and on IKZF3 (Aiolos) (setting [6]) was more than 30 µM throughout.
